Active and inactive are the calls of the source. No cut-off for these calls is given here.
How the values were obtained:
PC-3 [1] = assay: Induction of apoptosis in human PC3 cells at 15 uM after 72 hrs using propidium iodide staining by flow cytometry (reference value: 1.79 %); assay type: functional
PC-3 [2] = assay: Cell cycle arrest in human PC3 cells assessed as accumulation at S phase at 15 uM after 24 hrs using propidium iodide staining by flow cytometry (reference value: 34.84 %); assay type: functional
PC-3 [3] = assay: Induction of apoptosis in human PC3 cells at 15 uM after 48 hrs using propidium iodide staining by flow cytometry (reference value: 0.84 %); assay type: functional
PC-3 [4] = assay: Cell cycle arrest in human PC3 cells assessed as accumulation at S phase at 15 uM after 48 hrs using propidium iodide staining by flow cytometry (reference value: 38.16 %); assay type: functional
PC-3 [5] = assay: Cell cycle arrest in human PC3 cells assessed as accumulation at G1 phase at 15 uM after 72 hrs using propidium iodide staining by flow cytometry (reference value: 42.19 %); assay type: functional
PC-3 [6] = assay: Cell cycle arrest in human PC3 cells assessed as accumulation at G1 phase at 15 uM after 48 hrs using propidium iodide staining by flow cytometry (reference value: 54.14 %); assay type: functional
PC-3 [7] = assay: Induction of apoptosis in human PC3 cells at 15 uM after 24 hrs using propidium iodide staining by flow cytometry (reference value: 1.27 %); assay type: functional
PC-3 [8] = assay: Cell cycle arrest in human PC3 cells assessed as accumulation at G1 phase at 15 uM after 24 hrs using propidium iodide staining by flow cytometry (reference value: 46.97 %); assay type: functional
PC-3 [9] = assay: Cell cycle arrest in human PC3 cells assessed as accumulation at G2 phase at 15 uM after 72 hrs using propidium iodide staining by flow cytometry (reference value: 20.18 %); assay type: functional
PC-3 [10] = assay: Cell cycle arrest in human PC3 cells assessed as accumulation at S phase at 15 uM after 72 hrs using propidium iodide staining by flow cytometry (reference value: 37.73 %); assay type: functional
PC-3 [11] = assay: Cell cycle arrest in human PC3 cells assessed as accumulation at G2 phase at 15 uM after 24 hrs using propidium iodide staining by flow cytometry (reference value: 18.19 %); assay type: functional
PC-3 [12] = assay: Antiproliferative activity against human PC3 cells assessed as growth inhibition after 96 hrs by SRB assay; assay type: functional, cell-based
PC-3 [13] = assay: Cell cycle arrest in human PC3 cells assessed as accumulation at G2 phase at 15 uM after 48 hrs using propidium iodide staining by flow cytometry (reference value: 13.36 %); assay type: functional
[14] = target: T1, Adrenergic receptor alpha-1 (Rattus norvegicus, UniProt P15823+P23944+P43140); assay: Displacement [3H]prazosin from alpha1 adrenergic receptor in rat brain cortex homogenates after 30 mins by liquid scintillation counting; assay type: tissue-based
T1 sequence (P15823 whole entry): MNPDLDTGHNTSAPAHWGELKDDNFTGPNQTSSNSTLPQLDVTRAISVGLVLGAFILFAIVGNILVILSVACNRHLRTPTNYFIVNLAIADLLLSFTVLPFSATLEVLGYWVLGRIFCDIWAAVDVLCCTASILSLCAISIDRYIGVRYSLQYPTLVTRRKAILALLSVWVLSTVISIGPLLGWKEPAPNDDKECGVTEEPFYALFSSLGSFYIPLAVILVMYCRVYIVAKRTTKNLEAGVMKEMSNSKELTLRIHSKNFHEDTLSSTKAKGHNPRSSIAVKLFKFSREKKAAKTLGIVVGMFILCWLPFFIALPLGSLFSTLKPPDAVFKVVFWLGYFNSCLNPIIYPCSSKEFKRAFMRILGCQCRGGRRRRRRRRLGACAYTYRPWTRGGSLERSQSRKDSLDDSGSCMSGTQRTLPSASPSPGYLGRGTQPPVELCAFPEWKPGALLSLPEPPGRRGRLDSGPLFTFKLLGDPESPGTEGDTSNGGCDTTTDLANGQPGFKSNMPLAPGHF
T1 sequence (P23944 whole entry): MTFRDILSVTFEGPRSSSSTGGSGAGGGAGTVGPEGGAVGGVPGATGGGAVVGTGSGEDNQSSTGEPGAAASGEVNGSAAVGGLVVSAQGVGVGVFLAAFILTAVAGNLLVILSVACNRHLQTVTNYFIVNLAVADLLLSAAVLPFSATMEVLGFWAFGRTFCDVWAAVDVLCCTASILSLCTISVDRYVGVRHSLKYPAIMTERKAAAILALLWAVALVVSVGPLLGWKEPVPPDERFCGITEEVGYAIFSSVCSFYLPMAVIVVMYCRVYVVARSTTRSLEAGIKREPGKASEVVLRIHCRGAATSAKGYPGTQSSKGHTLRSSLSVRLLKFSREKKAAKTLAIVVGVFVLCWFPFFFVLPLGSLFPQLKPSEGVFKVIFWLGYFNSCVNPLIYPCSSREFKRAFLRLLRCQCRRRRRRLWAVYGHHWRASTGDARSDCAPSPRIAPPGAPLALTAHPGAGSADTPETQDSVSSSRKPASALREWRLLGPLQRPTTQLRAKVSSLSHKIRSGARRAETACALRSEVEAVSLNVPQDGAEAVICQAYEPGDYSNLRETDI
T1 sequence (P43140 whole entry): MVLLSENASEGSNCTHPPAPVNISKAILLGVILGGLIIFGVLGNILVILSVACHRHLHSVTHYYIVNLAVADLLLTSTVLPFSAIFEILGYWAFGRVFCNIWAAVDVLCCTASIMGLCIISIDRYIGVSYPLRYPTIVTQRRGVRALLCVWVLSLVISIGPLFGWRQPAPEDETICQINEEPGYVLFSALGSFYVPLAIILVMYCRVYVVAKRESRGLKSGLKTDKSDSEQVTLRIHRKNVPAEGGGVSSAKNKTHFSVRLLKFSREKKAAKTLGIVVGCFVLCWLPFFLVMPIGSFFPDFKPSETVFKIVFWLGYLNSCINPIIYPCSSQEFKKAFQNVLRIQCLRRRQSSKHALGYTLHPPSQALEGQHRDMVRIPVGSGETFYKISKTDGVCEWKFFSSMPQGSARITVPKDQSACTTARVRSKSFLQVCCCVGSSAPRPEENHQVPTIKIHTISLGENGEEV

[15] = target: T2, Adrenergic receptor alpha-2 (Rattus norvegicus, UniProt P22086+P19328+P22909); assay: Displacement [3H]yohimbine from alpha 2 adrenergic receptor in rat brain cortex homogenates after 30 mins by liquid scintillation counting; assay type: tissue-based
T2 sequence (P22086 whole entry): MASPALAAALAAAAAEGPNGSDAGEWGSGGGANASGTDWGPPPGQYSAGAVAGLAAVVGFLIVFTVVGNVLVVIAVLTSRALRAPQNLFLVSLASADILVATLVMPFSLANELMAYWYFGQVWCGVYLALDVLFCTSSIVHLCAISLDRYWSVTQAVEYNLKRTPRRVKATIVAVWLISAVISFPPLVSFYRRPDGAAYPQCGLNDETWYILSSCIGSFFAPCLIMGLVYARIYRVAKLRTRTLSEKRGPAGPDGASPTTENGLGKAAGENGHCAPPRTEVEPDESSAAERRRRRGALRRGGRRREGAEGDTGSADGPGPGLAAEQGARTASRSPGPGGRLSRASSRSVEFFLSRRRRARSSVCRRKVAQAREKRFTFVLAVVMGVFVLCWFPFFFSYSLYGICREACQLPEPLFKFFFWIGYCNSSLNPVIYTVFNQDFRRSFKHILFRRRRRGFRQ
T2 sequence (P19328 whole entry): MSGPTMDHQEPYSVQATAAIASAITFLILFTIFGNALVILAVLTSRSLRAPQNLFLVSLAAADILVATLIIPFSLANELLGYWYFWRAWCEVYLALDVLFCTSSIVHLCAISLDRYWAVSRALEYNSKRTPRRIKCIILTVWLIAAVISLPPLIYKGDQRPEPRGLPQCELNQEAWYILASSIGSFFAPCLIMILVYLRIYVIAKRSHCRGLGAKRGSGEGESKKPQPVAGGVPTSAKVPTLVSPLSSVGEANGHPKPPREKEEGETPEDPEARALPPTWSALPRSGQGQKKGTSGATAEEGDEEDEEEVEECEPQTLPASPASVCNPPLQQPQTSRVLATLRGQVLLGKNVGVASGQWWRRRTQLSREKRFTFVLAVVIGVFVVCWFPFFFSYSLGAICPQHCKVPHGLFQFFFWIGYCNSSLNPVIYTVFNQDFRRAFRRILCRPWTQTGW
T2 sequence (P22909 whole entry): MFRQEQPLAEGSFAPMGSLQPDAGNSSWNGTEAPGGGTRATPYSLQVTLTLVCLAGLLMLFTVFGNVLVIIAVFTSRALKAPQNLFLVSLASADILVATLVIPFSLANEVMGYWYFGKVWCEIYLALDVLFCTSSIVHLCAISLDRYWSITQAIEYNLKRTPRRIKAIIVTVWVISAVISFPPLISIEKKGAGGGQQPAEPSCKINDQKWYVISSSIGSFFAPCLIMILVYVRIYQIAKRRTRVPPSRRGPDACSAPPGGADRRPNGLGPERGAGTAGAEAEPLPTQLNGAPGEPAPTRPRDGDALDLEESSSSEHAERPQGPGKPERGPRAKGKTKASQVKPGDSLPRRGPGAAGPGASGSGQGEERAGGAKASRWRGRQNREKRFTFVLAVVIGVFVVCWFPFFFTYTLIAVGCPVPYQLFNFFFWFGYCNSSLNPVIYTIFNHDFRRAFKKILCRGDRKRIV

[16] = target: T3, 5-hydroxytryptamine receptor 2C (Rattus norvegicus, UniProt P08909); assay: Displacement of [3H]mesulergine from 5HT2C receptor in Sprague-Dawley rat frontal cortical homogenates after 15 mins
T3 sequence (P08909 whole entry): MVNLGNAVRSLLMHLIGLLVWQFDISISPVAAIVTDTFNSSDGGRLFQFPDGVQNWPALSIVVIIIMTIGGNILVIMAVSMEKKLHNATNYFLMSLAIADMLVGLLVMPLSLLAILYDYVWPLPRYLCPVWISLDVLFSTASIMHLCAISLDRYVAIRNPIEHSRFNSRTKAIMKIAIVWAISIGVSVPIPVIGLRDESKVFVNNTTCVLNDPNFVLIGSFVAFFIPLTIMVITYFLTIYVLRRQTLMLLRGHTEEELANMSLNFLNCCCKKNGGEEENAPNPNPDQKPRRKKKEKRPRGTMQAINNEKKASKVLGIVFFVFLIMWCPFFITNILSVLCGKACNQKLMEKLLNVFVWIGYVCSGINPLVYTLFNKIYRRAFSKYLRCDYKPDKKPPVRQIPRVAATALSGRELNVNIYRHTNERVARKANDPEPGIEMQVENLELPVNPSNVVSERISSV

[17] = target: T4, 5-hydroxytryptamine receptor 1A (Rattus norvegicus, UniProt P19327); assay: Displacement of [3H]8-OH-DPAT from 5HT1A receptor in Sprague-Dawley rat brain cortex homogenates after 30 mins by liquid scintillation counting; assay type: tissue-based
T4 sequence (P19327 whole entry): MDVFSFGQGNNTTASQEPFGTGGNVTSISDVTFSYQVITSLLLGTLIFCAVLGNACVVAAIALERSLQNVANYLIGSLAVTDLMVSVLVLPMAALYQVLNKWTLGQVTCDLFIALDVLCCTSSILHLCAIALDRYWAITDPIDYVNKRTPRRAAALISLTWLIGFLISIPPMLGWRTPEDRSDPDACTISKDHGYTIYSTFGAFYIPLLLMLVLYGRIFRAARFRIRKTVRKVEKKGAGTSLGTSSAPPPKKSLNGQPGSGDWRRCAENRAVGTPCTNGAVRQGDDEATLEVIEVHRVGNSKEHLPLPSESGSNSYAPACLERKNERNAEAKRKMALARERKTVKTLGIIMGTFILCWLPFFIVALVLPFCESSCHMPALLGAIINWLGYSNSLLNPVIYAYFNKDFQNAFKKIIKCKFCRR

D(1A) dopamine receptor = D(1A) dopamine receptor (Rattus norvegicus, UniProt P18901); assay: Displacement of [3H]SCH 23390 from dopamine D1 receptor in rat corpora striatum homogenates after 15 mins by liquid scintillation counting
D(2) dopamine receptor = D(2) dopamine receptor (Rattus norvegicus, UniProt P61169); assay: Displacement of [3H]spiperone from dopamine D2 receptor in rat corpora striatum homogenates after 15 mins by liquid scintillation counting
[18] = target: 5-hydroxytryptamine receptor 2A (Rattus norvegicus, UniProt P14842); assay: Displacement of [3H]Ketanserin from 5HT2A receptor in Sprague-Dawley rat frontal cortical homogenates after 15 mins
PC-3 [19] = assay: Inhibition of serotonin-induced MAPK phosphorylation in human PC3 cells at 15 uM after 48 hrs by Western blotting; assay type: cell-based
[20] = target: RAC-alpha serine/threonine-protein kinase (Homo sapiens) (UniProt P31749); assay: Inhibition of serotonin-induced AKT phosphorylation in human PC3 cells at 15 uM after 48 hrs by Western blotting; assay type: cell-based; details: PC-3
Sequence of RAC-alpha serine/threonine-protein kinase (Homo sapiens) (P31749 whole entry): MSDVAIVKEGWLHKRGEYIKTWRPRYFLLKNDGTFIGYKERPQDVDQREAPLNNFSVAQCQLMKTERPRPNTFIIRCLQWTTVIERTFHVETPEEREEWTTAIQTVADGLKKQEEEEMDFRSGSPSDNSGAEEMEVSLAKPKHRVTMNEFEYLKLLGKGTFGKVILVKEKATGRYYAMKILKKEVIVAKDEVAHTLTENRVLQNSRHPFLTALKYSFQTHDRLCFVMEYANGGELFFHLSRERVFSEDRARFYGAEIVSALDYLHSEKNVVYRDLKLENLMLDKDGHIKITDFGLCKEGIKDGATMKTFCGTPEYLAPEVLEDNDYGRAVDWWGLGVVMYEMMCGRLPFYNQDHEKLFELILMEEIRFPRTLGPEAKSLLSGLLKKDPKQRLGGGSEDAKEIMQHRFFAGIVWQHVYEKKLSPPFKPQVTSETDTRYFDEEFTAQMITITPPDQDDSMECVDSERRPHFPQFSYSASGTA

Sequence of D(1A) dopamine receptor (P18901 whole entry): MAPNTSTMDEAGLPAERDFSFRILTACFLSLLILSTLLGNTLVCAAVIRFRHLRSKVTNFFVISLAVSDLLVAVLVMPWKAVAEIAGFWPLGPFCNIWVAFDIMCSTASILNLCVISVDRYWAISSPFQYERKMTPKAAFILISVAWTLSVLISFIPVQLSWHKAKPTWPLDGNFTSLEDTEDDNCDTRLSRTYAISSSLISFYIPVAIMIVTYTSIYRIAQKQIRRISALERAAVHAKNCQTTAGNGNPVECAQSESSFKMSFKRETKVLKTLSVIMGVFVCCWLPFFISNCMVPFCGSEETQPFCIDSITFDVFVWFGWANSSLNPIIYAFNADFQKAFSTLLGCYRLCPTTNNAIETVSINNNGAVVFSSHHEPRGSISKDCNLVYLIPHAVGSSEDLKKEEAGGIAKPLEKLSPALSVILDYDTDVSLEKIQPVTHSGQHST
Sequence of 5-hydroxytryptamine receptor 2A (P14842 whole entry): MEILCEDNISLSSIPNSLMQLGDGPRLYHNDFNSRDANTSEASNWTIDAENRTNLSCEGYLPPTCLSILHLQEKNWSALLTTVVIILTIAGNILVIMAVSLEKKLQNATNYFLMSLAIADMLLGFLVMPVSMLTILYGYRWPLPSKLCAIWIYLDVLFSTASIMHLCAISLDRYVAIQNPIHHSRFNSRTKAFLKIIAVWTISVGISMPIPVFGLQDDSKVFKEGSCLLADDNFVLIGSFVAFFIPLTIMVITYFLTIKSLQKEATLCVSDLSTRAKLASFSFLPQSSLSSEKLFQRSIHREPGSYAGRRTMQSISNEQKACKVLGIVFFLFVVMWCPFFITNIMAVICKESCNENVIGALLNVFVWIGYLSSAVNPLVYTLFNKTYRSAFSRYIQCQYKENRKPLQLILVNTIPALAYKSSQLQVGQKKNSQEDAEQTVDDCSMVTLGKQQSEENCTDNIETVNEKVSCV
Sequence of D(2) dopamine receptor (P61169 whole entry): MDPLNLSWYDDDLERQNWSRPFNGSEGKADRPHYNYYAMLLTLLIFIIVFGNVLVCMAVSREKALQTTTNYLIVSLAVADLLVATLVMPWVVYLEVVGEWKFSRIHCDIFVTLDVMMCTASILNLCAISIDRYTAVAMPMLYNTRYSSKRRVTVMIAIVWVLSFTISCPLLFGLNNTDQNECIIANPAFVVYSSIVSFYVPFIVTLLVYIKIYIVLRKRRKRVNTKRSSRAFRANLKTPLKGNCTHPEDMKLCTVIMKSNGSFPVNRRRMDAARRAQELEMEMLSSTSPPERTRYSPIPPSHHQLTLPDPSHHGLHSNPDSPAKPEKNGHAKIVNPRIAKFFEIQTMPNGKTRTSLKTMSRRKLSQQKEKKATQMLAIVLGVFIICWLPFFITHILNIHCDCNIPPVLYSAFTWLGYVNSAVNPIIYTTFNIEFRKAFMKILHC

Structure (SMILES)	Activity (PC-3 [1]) [%]	Activity (PC-3 [2]) [%]	Activity (PC-3 [3]) [%]	Activity (PC-3 [4]) [%]	Activity (PC-3 [5]) [%]	Activity (PC-3 [6]) [%]	Activity (PC-3 [7]) [%]	Activity (PC-3 [8]) [%]	Activity (PC-3 [9]) [%]	Activity (PC-3 [10]) [%]	Activity (PC-3 [11]) [%]	growth inhibition (GI) (PC-3 [12])	Activity (PC-3 [13]) [%]	other results
Br.COc1ccccc1N1CCN(CCCCN2C(=O)c3ccccc3C2=O)CC1	3.05	38.16	1.77	35.59	45.73	49.53	2.42	37.1	11.26	43.02	24.74	inactive	14.88	
N#C/N=C(\NCCCN1CCN(c2cccc3ccccc23)CC1)c1ccncc1												inactive		Ki [14]: > 10 µM; Ki [15]: 0.878 µM; Ki [16]: Not Active
N#CNC(=NCCCN1CCN(c2cccc3ccccc23)CC1)c1ccncc1														Ki [17]: > 10 µM; Ki (D(1A) dopamine receptor): > 10 µM; Ki (D(2) dopamine receptor): 1.6 µM; Ki [18]: 0.172 µM
Br.CCCN(CCC)[C@H]1CCc2cccc(O)c2C1	2.65	34.96	2.2	37.31	50.34	47.78	0.73	40.62	13.17	36.5	24.42	inactive	14.92	inhibition (PC-3 [19]): inactive; inhibition [20]: Active

From ChEMBL document CHEMBL1781926, “Synthesis of 1-naphtylpiperazine derivatives as serotoninergic ligands and their evaluation as antiproliferative agents” (Eur J Med Chem, 2011)
